Results taken from patent US20030096379A1, “Method for producing tryptamine derivatives” (priority 2001, published 2003).

Assays:
[1] = molecular target: T1, E. coli DH5α tryptophan synthase (TrpBA) (Escherichia coli, UniProt P0A879); format: biochemical; set-up: key: +: a clear ninhydrin-positive spot at the Rf of standard tryptophan derivatives after 16-65 h; (+): a weak spot in the product region; −: no product observed; NR: experiment not run; conditions: indole derivative + L-serine + PLP, 37° C., 16-65 h, ninhydrin
T1 construct: made in house; host or cells: E. coli LMG194 (pBAD) or BL-21 (pET)
Procedure: (§1) A mixture containing 2 μmole of the indole derivative, 0.05 μmole of PLP and 50 μmol of L-serine in 40 mM KPi buffer in 8% v/v ethanol water, pH 7.5, was warmed to 37° C., then enzyme solution was added to give a final volume of 1 mL. Aliquots (100 μL) were quenched at intervals of 2, 6, and 24 hours or more in microcentrifuge capsules containing 25 μL of 6 M HCl. The quenched samples were evaporated in a Savant Speed-vac. The residues were resuspended in methanol/water (1:1, 50 μL) and analyzed by TLC on Silica gel GF254 plates alongside tryptophan and tryptamine standards, eluting with CH2Cl2/EtOH/H2O/HOAc 77:20:2:1. Products were visualized first by using short-wave UV light, then with ninhydrin spray reagent (1/1/98 w/v/v ninhydrin/HOAc/EtOH) followed by heating.
(§2) Substituted indoles were incubated with L-serine, PLP and enzyme (TrpBA or TnA) prior to TLC analysis as generally described in Example 6. Serine, which can be used instead of pyruvate and ammonia for tryptophan synthesis with TnA, was employed as the 3-carbon acid because pyruvate tended to obscure the tryptophan product spots when plates were visualized with ninhydrin. TnA-catalyzed formation of tryptophan was also faster when serine was the 3-carbon donor. Reaction rates for several substrates were also estimated by HPLC.
(§3) In Table 4, “+” indicates a clear ninhydrin-positive spot at the Rf of standard tryptophan derivatives after 16-65 h; “(+)” indicates a weak spot in the product region; “−” means no product observed, “NR” means experiment not run. ESMS=electrospray mass spectrometry. Unless otherwise indicated, the mass value given represents the singly-protonated molecular ion (M+1).

tryptophanase (TnA) = molecular target: T2, tryptophanase (TnA) (Escherichia coli, UniProt P0A853); format: biochemical, E. coli; set-up: key: +: a clear ninhydrin-positive spot at the Rf of standard tryptophan derivatives after 16-65 h; (+): a weak spot in the product region; −: no product observed; NR: experiment not run; conditions: indole derivative + L-serine + PLP, 37° C., 16-65 h, ninhydrin
T2 construct: made in house; host or cells: E. coli LMG194 (pBAD) or BL-21 (pET)
Procedure: as §1, §2, §3

TrpBA = molecular target: T3, TrpBA (Escherichia coli, UniProt P0A879); test: Relative rates of tryptophan derivative synthesis by HPLC, TrpBA; format: biochemical, E. coli; set-up: key: **: rate too slow to quantitate; conditions: initial rate estimated by HPLC, indole = 100%
T3 construct: made in house; host or cells: E. coli LMG194 (pBAD) or BL-21 (pET)
Procedure: Reaction mixtures were prepared as in Example 6 and were incubated at 37° C. Aliquots (100 μL) were removed and quenched by addition of to 300 μL of 0.5 M sodium citrate, pH 3.0 in 10% v/v acetonitrile/water in 2 ml microcentrifuge tubes. Following centrifugation for 10 min at 13,000×g, the supernatants were passed through 0.45μ membrane filters prior to HPLC analysis of 20 μL of filtrate.
(§4) TnA reactions were run with L-serine as the 3-carbon substrate.

TnA = molecular target: T4, TnA (Escherichia coli, UniProt P0A853); test: Relative rates of tryptophan derivative synthesis by HPLC, TnA; format: biochemical, E. coli; conditions: initial rate estimated by HPLC, indole = 100%, L-serine as the 3-carbon substrate
T4 construct: made in house; host or cells: E. coli LMG194 (pBAD) or BL-21 (pET)
Procedure: Aliquots (100 μL) were removed and quenched by addition of to 300 μL of 0.5 M sodium citrate, pH 3.0 in 10% v/v acetonitrile/water in 2 ml microcentrifuge tubes. Following centrifugation for 10 min at 13,000×g, the supernatants were passed through 0.45μ membrane filters prior to HPLC analysis of 20 μL of filtrate.
as §4

TrpBA and TDC1 = test: Coupled enzyme synthesis monitored by HPLC; format: biochemical; conditions: L-serine, PLP, pH 8.5 phosphate buffer, 37° C.
Procedure: To a solution containing L-serine (25 μmol), pyridoxal phosphate (0.05 μmol) and TrpBA (0.02 to 1.5 units, depending on the substrate), TDC1 (0.2 mL 0.6 units) and KPi buffer (0.05 mmol, pH 7.5) in a volume of 0.8 mL were added […] of 5 mM indole derivative in 20% v/v ethanol/water. The mixture was incubated at 37° C. and aliquots were quenched and analyzed as described for Example 8. In cases where tryptamine and/or tryptophan standards were not available, peaks were collected for mass spectral analysis. Electrospray mass spectral analyses were performed.
Mixtures containing indole, L-serine, PLP and TDC1 were incubated in pH 8.5 phosphate buffer, analyzing aliquots by HPLC, as described in Example 12.
The procedure used in Example 24 was carried out by substituting indole with 2-methylindole, 4-hydroxymethylindole, 5-methoxy-, 5-hydroxymethyl-, 5-methoxycarbonyl, and 5,6-dimethoxyindole.

[2] = Tryptophanase (tryptophan lyase) activity of the enzyme preparation; format: biochemical, E. coli
Procedure: Tryptophan synthase activity was assayed by monitoring the increase in absorbance at 290 nm of a mixture containing serine, indole and PLP (Higgins, W., et al., Biochemistry, 1979, 18, 4827). TnA-catalyzed tryptophan synthesis was also measured by the 290 nm assay, while the tryptophan lyase reaction rate was measured by monitoring the reduction in NADH in reaction mixtures containing L-tryptophan and lactate dehydrogenase, indicating the amount of pyruvate released. Tryptophan decarboxylase was assayed colorimetrically by monitoring the sabsorbance at 580 nm produced by serotonin (AAADs) or tryptamine (TDCs) following treatment of reaction aliquots with Ehrlich's reagent (4-N,N-(dimethyl)aminobenzaldehyde in ethanolic HCl; Nakazawa, H.; Kumagi, H.; Yamada, H. Biochem Biophys. Res. Commun., 1974, 61, 75-82). Serotonin could be detected with approximately 5-fold higher sensitivity by this method as compared with tryptamine. The Ehrlich reagent assay using a microtiter plate format for simultaneous analysis of multiple enzyme samples may also be used. HPLC analysis was performed on acid-quenched reaction aliquots by using a base-deactivated C8 reversed-phase support (Shandon Hypersil BD8). HPLC analysis of acid-quenched aliquots permitted calculation of a rate ratio of 4.5 to 1 for pkAAAD-catalyzed DOPA decarboxylation relative to that of L-5-hydroxytryptophan, in good agreement with the accepted ratio of approximately 5:1. (See Sourkes, T. L. Methods Enzymol., 1987, 142, 170-178, which is incorporated herein by reference.)
Activity is expressed as μmol product formed per minute, TrpBA activity is reported for the reaction: indole+serine−>tryptophan at room temperature as described in the next section. Tryptophanase is reported for the reaction: tryptophan−>indole+pyruvate+NH4^+ at room temperature. The rate of tryptophan synthesis for TrpBA under our assay conditions is approximately 3-fold higher at 37° C.

[3] = pH-rate profiles for tryptophan-metabolizing enzymes; format: biochemical; conditions: between pH 7.5 and 9.5, L-serine and indole
Source text: Both AAADs TDC1 and TDC2 were active over the entire optimum range shown by TrpBA. These broad activity ranges make it clear that the coupled enzyme process is not limited by pH.

T1 sequence (P0A879 whole entry): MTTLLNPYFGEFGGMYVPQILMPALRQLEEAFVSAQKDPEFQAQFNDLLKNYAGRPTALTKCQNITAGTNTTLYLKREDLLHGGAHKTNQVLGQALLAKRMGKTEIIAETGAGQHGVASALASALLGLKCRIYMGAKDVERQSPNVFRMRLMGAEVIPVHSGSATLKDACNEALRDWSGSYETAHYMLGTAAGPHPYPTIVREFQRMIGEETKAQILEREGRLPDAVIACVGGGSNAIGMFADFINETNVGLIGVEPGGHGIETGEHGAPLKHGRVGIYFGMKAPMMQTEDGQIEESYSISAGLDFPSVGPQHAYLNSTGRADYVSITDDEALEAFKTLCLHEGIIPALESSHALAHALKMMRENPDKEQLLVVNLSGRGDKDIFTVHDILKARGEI
T1 sequence (P0A877 whole entry, further chain): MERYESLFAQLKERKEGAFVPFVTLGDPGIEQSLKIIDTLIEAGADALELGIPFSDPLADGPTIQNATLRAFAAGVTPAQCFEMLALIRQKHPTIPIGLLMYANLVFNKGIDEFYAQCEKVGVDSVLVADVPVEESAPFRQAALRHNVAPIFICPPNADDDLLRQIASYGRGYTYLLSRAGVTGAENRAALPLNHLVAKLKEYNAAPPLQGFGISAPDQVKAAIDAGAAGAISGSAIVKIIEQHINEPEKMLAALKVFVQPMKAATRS
T3 sequence (P0A879 whole entry): as the sequence (P0A879 whole entry) above
T3 sequence (P0A877 whole entry, further chain): as the sequence (P0A877 whole entry, further chain) above
T4 sequence (P0A853 whole entry): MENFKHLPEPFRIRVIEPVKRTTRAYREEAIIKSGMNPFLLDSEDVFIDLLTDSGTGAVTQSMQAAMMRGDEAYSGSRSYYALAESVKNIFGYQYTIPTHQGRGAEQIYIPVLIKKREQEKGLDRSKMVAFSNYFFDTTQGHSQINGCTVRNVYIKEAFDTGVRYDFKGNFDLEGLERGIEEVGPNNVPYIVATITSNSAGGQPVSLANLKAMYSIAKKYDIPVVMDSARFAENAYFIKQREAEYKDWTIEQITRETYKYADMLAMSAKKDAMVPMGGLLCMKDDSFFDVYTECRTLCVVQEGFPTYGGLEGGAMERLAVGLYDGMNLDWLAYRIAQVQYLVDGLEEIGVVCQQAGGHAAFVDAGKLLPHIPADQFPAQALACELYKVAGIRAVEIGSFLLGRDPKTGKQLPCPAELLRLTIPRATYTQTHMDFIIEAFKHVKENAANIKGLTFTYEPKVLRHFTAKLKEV
T2 sequence (P0A853 whole entry): as above

Row | Molecule | TrpBA (tryptophan product spot, TLC analysis) [1] | TnA (tryptophan product spot, TLC analysis) (tryptophanase (TnA)) | Relative rate (TrpBA) (TrpBA) | Relative Rate (TnA) (TnA) | formation of tryptophan derivative and tryptamine (HPLC peaks) (TrpBA and TDC1) | Relative rate (TrpBA) (TrpBA; L-serine) | Crude specific activity ([2]; Table 3, TnA) | Crude spec activity ([2]; TnA, tryptophan->indole+pyruvate+NH4+, room temperature) | Purified specific activity ([2]; TnA, tryptophan->indole+pyruvate+NH4+, room temperature, after DEAE cellulose) | percent of the maximum rate [3]
1 | COc1cc2cc[nH]c2cc1OC [5,6-dimethoxy, 5,6-dimethoxyindole] | − | (+) | ** | 2.1% | a second peak representing formation of tryptamine |  |  |  |  | 
2 | c1cc2cc3c(cc2[nH]1)OCO3 [5,6-methylenedioxy-] | − | + |  | 1.0% |  | 0.018% |  |  |  | 
3 | OCc1ccc2[nH]ccc2c1 [5-hydroxymethyl-, indole-5-methanol] | + | + |  | 1.2% | a second peak representing formation of tryptamine | 0.03% |  |  |  | 
4 | c1ccc2[nH]ccc2c1 [indole, reference compound] | + | + |  | 100% | clearly observable | 100% |  |  |  | 
5 | TnA: E. coli tryptophanase, E.C. 4.1.99.1, cloned and expressed in E. coli |  |  |  |  |  |  | 0.8 units/mg | 0.8 | 2.0 Units/mg | ≥ 84%
